Results reported in PMC3171734 (2011).

Key:
[1] = target: T1, dimethylarginine dimethylaminohydrolase (P. aeruginosa DDAH) (Pseudomonas aeruginosa, UniProt Q9I4E3); assay: dose-dependent inhibition of isolated enzyme; type: biochemical
T1 sequence (Q9I4E3 1-254): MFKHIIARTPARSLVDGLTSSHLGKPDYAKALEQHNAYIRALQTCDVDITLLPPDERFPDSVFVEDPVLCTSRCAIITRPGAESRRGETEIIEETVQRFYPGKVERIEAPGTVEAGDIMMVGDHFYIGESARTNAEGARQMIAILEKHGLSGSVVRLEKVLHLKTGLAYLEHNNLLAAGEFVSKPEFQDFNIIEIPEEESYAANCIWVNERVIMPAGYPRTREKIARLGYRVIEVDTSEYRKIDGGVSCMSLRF

human DDAH-1 = human DDAH-1 (Homo sapiens, UniProt O94760); assay: dose-dependent inhibition of isolated enzyme; type: biochemical
[2] = substrate: CSC(=N)NCCC[C@H](N)C(=O)O; assay: steady-state kinetics, DTNB-coupled 384-well assay; type: biochemical, Pseudomonas aeruginosa

Chain of human DDAH-1 (O94760 2-285): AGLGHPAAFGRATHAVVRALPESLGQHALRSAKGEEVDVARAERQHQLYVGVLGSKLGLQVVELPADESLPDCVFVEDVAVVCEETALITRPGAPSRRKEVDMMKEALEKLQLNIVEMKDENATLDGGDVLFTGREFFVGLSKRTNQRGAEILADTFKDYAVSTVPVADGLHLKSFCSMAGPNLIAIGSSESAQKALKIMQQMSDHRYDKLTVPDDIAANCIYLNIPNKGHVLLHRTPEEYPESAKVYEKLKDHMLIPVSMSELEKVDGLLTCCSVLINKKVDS

| Molecule | IC50 [1] [nM] | IC50 (human DDAH-1) [nM] | Km [2] [µM] |
| --- | --- | --- | --- |
| O=c1c2ccccc2[se]n1-c1ccccc1 [ebselen] | 96 ± 2 | 330 ± 30 |  |
| dimethylarginine dimethylaminohydrolase (P. aeruginosa DDAH) (Pseudomonas aeruginosa PAO1) (protein) MFKHIIARTPARSLVDGLTSSHLGKPDYAKALEQHNAYIRALQTCDVDITLLPPDERFPDSVFVEDPVLCTSRCAIITRPGAESRRGETEIIEETVQRFYPGKVERIEAPGTVEAGDIMMVGDHFYIGESARTNAEGARQMIAILEKHGLSGSVVRLEKVLHLKTGLAYLEHNNLLAAGEFVSKPEFQDFNIIEIPEEESYAANCIWVNERVIMPAGYPRTREKIARLGYRVIEVDTSEYRKIDGGVSCMSLRF |  |  | 22 ± 1 |
